Each block holds one molecule with its values, some of them ahead of it. Active and inactive are the calls of the source.
Legend:
[1] = target: T1, Heat shock factor protein 1 (Mus musculus, UniProt P38532); assay: decrease of HSF1-responsive luciferase luminescence – cell-based, NIH3T3, dose retest, confirmation (AID 2382); format: functional;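 further: NIH3T3 fibroblasts with HSF1-driven luciferase reporter stressed by proteasome inhibitor MG132; luminescence from HSF1-driven luciferase expression after 8 hours of MG132 stress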
T1 sequence (P38532 whole entry): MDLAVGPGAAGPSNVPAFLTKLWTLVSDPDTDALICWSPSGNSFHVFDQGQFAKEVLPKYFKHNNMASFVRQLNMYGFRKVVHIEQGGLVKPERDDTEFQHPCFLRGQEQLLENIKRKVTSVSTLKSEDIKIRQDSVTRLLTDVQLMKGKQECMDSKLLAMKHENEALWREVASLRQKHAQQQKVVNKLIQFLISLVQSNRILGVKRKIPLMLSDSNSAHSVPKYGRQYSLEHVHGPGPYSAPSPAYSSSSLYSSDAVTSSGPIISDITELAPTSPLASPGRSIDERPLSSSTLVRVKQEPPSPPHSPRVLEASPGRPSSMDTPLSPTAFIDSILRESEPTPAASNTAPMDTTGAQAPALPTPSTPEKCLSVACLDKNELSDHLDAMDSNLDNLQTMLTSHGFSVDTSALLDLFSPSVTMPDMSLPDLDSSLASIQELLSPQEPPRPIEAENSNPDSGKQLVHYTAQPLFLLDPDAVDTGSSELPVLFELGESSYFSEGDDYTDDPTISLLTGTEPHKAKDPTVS

Escherichia coli = assay: microbe, parasite or virus in culture
Candida albicans = assay: fluconazole-resistant Candida strain growth inhibitors – CaCi-8 strain, dry powder, set 4, dose response (AID 488950); format: functional, organism-based
[2] = target: T2, Beta-2 adrenergic receptor (Homo sapiens, UniProt P07550); assay: Dose response for HTS for Beta-2AR agonists via FAP method from Powderset3.; format: functional
T2 sequence (P07550 whole entry): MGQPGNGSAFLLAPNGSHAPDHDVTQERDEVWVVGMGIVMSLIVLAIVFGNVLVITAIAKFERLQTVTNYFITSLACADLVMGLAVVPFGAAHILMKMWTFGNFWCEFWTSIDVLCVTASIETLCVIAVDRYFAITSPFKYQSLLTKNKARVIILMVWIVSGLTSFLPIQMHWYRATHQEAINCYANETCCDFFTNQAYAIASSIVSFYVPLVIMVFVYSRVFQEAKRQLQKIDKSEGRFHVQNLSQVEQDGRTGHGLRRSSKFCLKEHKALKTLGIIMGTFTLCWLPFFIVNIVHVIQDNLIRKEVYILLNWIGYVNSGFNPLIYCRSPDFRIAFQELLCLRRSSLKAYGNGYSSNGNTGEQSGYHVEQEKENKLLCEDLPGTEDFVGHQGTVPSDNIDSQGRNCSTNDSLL

[3] = target: T2, Beta-2 adrenergic receptor; assay: ADRB2 activation measured by internalization – cell-based, FAP fluorogen, flow cytometry, cherry pick 1, dose response (AID 588763); format: functional

SMILES: CCn1ccnc1CN(C)C(=O)c1cc(COc2ccc(Cl)cc2OC)on1
- EC50 [1]: > 195 µM (not active)
- AC50 (Escherichia coli): 160 µM (active)

SMILES: O=C(c1ccc(Cl)cc1)N1CCN(c2ccnc3ccccc23)CC1
- AC50 (Candida albicans): 9.81 µM (active)

- EC50 [2]: 0.0883 µM (active)
- EC50 [3]: 0.973 µM (active)
SMILES: CC(Oc1ccc(Cl)cc1Cl)c1nc(-c2ccc(NC(=O)c3ccccn3)cc2)no1 (stereo not given)
